Columns and labels:
[1] = test system: S. aureus ATCC 29213; assay: Broth microdilution MIC assay, S. aureus; type: cell-based; details: broth microdilution, 16-20 hours at 37° C.; for MIC: Staphylococcus aureus, ATCC29213, read-out: S. aureus 29213 MIC
In short: (§1)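 CLSI broth microdilution in cation-supplemented Mueller-Hinton broth; 2-fold serial compound dilutions inoculated at 5×10^5 CFU/mL from 3-5 h log-phase cultures. Plates incubated 16-20 hours at 37° C. MIC read visually as lowest concentration with no bacterial growth.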

[2] = test system: E. coli K12 PBP1a/b; assay: Bocillin FL competition binding assay, PBP1a/1b combined; design: species or system Escherichia coli K12; details: 15 min pre-incubation, PBP 1a/1b combined
Procedure: (§2) To determine the ability of test compounds to bind Penicillin Binding Proteins (PBPs), a competition binding assay using Bocillin FL (fluorescent derivative of penicillin V) was adapted from the classical method used to assess PBP potency of beta-lactams.
(§3) Penicillin binding proteins were isolated from Escherichia coli K12 by growth of Escherichia coli K12 from a single colony in 4 L of Luria-Bertani (LB) broth at 35° C. and 250 rpm to an OD600 nm of 0.5. The cells were harvested by centrifugation at 7,000×g for 10 min. at 4° C. Cells were resuspended and washed in 50 mM potassium phosphate pH 7.5. The cells were re-suspended in sonication buffer [50 mM Tris-HCl pH 7.5, 1 mM MgCl2, 1 mM beta-mercaptoethanol, and 5 μg/mL DNAse I] and sonicated by 4 passes of 30 seconds at 45 W on ice. The sample was clarified by centrifugation at 3,000×g to remove cell debris and unbroken cells and supernatant containing the membrane proteins was retained. The membrane proteins including the PBPs were further purified from soluble constituents by an ultracentrifugation step at 100,000×g for 30 min. at 4° C. The membrane proteins are washed twice with 10 mM sodium phosphate pH 7, resuspended in a volume of 5 mL, quantitated by BCA assay, adjusted to […] and frozen at −80° C. until use.
(§4) The adapted Bocillin FL competition binding method described herein incorporates a 15 min. pre-incubation of test compound with isolated PBPs to attempt to balance the difference in mechanism of inhibition between beta-lactams (largely irreversible covalent bond to active site Serine) and the boron-containing PBP inhibitor test compounds (reversible covalent bond to active site Serine). Briefly, 50 μL reactions consisted of 100 μg's of total membrane protein extracts containing PBPs incubated with a dilution series of test compound ranging from 0.005 μg/mL to 2,480 μg/mL in 10 mM sodium phosphate pH7 containing 350 mM NaCl. Thirty minute reactions at 35° C. were initiated by addition of […] Bocillin FL, quenched by addition of SDS-PAGE loading buffer containing sodium dodecyl sulfate (SDS) and heated for 15 minutes at 95° C. to denature proteins in preparation for SDS-polyacrylamide gel electrophoresis. The Bocillin FL labeled PBPs are then separated by SDS-PAGE in Novex NuPage 10% Bis-Tris pre-cast gels (Invitrogen). The SDS-PAGE gel, post-electrophoresis, is then washed in water to remove excess SDS for 10 minutes at room temperature and placed on the scanning bed of a GE Healthcare/Amersham Biosciences Storm 860 fluorescence scanner. The excitation wavelength is in the blue spectrum at 450 nm and the emission at 520 nm is captured by the instrument. Effective PBP inhibitors are detected by a reduction in Bocillin FL labeling of the particular PBP over the dose range of test compound in a dose-responsive manner. High molecular weight PBP 1a/1b are not resolved by these gels, thus we report HMW PBP binding results in μg/mL for PBPs 1a/1b combined as well as for PBP2 and PBP3.
(§5) Representative results are shown in Table 2, where A represents a potency of >1000 μg/mL, B represents a potency between 64 and 1000 μg/mL inclusive, and C represents a potency of <64 μg/mL. NT=Not Tested.

[3] = test system: hyper-permeable E. coli 901C; assay: Broth microdilution MIC assay, hyper-permeable E. coli; type: cell-based; details: for MIC: Escherichia coli, read-out: E. coli 901C MIC
In short: as §1

[4] = target: T1, E. coli PBP2 (Escherichia coli, UniProt P0AD65); assay: Bocillin FL competition binding assay, PBP2; design: species or system Escherichia coli K12; details: 15 min pre-incubation
T1 construct: 100 μg's of total membrane protein extracts containing PBPs; endogenous in cells; host or cells: Escherichia coli K12, membrane protein fraction
Procedure: as §2, §3, §4, §5

[5] = target: T2, E. coli PBP3 (Escherichia coli, UniProt P0AD68); assay: Bocillin FL competition binding assay, PBP3; design: species or system Escherichia coli K12; details: 15 min pre-incubation
T2 construct: 100 μg's of total membrane protein extracts containing PBPs; endogenous in cells; host or cells: Escherichia coli K12, membrane protein fraction
Procedure: as §2, §3, §4, §5

T2 sequence (P0AD68 1-577): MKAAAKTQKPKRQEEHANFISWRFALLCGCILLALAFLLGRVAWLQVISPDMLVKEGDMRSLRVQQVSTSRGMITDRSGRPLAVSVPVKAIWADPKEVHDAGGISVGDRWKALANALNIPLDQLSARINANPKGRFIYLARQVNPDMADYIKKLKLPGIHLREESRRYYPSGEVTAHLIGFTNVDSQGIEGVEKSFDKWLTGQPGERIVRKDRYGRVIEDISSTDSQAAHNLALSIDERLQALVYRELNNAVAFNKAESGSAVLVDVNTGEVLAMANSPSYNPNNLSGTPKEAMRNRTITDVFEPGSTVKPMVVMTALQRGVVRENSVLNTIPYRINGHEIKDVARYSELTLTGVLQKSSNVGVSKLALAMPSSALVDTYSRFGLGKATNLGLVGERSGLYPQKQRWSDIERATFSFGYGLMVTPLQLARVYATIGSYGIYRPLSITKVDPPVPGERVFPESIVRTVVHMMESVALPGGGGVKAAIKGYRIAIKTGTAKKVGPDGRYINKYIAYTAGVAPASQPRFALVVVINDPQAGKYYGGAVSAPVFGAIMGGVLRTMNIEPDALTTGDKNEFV
T1 sequence (P0AD65 whole entry): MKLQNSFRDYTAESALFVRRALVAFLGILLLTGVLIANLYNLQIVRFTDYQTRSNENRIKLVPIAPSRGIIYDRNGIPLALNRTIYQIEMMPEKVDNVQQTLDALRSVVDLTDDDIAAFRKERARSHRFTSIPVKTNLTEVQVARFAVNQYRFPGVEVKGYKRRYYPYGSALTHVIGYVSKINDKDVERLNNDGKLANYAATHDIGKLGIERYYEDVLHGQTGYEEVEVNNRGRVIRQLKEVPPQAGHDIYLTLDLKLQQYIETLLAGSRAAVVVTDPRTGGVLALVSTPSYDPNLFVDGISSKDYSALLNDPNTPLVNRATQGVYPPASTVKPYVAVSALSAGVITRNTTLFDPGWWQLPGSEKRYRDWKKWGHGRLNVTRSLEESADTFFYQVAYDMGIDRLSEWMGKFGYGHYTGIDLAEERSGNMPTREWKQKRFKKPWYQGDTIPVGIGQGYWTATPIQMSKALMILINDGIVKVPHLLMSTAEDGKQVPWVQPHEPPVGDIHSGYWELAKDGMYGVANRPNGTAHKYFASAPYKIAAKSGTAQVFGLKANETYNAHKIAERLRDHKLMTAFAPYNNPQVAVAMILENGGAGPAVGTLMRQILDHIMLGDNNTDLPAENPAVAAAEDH

`Nc1nc(/C(=N\O)C(=O)N[C@H]2Cc3cccc(C(=O)O)c3OB2O)cs1` [Example 7, (R,E)-3-(2-(2-aminothiazol-4-yl)-2-(hydroxyimino)acetamido)-2-hydroxy-3,4-dihydro-2H-benzo[e][1,2]oxaborinine-8-carboxylic Acid] was tested, and the MIC [1] was 64 to 128 mg/L, the “E. coli K12 PBP1a/b Potency” value [2] was “A (A represents a potency of >1000 μg/mL)” and the MIC [3] was under 64 mg/L. The “E. coli PBP2 Potency” value [4] was “B (B represents a potency between 64 and 1000 μg/mL inclusive)” and the “E. coli PBP3 Potency” value [5] was “A (A represents a potency of >1000 μg/mL)”.
`N#CC1CCC(NC(=O)CO/N=C(\C(=O)N[C@H]2Cc3cccc(C(=O)O)c3OB2O)c2csc(N)n2)CC1` (stereo partly drawn) [Example 63, (R)-3-((Z)-2-(2-aminothiazol-4-yl)-2-((2-(((1s,4S)-4-cyanocyclohexyl)amino)-2-oxoethoxy)imino)acetamido)-2-hydroxy-3,4-dihydro-2H-benzo[e][1,2]oxaborinine-8-carboxylic Acid] was tested, and the “E. coli K12 PBP1a/b Potency” value [2] was “B (B represents a potency between 64 and 1000 μg/mL inclusive)”, the “E. coli PBP2 Potency” value [4] was “B (B represents a potency between 64 and 1000 μg/mL inclusive)” and the “E. coli PBP3 Potency” value [5] was “C (C represents a potency of <64 μg/mL)”.
`Nc1nc(/C(=N/OCC(=O)NCCCCCNC(=O)CBr)C(=O)N[C@H]2Cc3cccc(C(=O)O)c3OB2O)cs1` [Example 78, (R,Z)-3-(2-(2-aminothiazol-4-yl)-15-bromo-6,14-dioxo-4-oxa-3,7,13-triazapentadec-2-enamido)-2-hydroxy-3,4-dihydro-2H-benzo[e][1,2]oxaborinine-8-carboxylic Acid] was tested, and the “E. coli K12 PBP1a/b Potency” value [2] was “B (B represents a potency between 64 and 1000 μg/mL inclusive)”, the MIC [3] was over 128 mg/L and the “E. coli PBP2 Potency” value [4] was “B (B represents a potency between 64 and 1000 μg/mL inclusive)”. For the same compound, the “E. coli PBP3 Potency” value [5] was “B (B represents a potency between 64 and 1000 μg/mL inclusive)”.
`Nc1nc(/C(=N/OCC(F)F)C(=O)N[C@H]2Cc3cccc(C(=O)O)c3OB2O)cs1` [Example 114, (R,Z)-3-(2-(2-aminothiazol-4-yl)-2-((2,2-difluoroethoxy)imino)acetamido)-2-hydroxy-3,4-dihydro-2H-benzo[e][1,2]oxaborinine-8-carboxylic Acid] was tested, and the MIC [1] was 64 to 128 mg/L and the MIC [3] was under 64 mg/L.
`Nc1nc(/C(=N/OCCCCl)C(=O)N[C@H]2Cc3cccc(C(=O)O)c3OB2O)cs1` [Example 115, (R,Z)-3-(2-(2-aminothiazol-4-yl)-2-((3-chloropropoxy)imino)acetamido)-2-hydroxy-3,4-dihydro-2H-benzo[e][1,2]oxaborinine-8-carboxylic Acid] gave an MIC [1] of over 128 mg/L and an MIC [3] of under 64 mg/L.
In the case of `Nc1nc(/C(=N/OCCCBr)C(=O)N[C@H]2Cc3cccc(C(=O)O)c3OB2O)cs1` [Example 116, (R,Z)-3-(2-(2-aminothiazol-4-yl)-2-((3-bromopropoxy)imino)acetamido)-2-hydroxy-3,4-dihydro-2H-benzo[e][1,2]oxaborinine-8-carboxylic Acid], the MIC [1] is reported as over 128 mg/L and the MIC [3] is reported as over 128 mg/L.
In the case of `Nc1nc(/C(=N/OCC(F)(F)F)C(=O)N[C@H]2Cc3cccc(C(=O)O)c3OB2O)cs1` [Example 117, (R,Z)-3-(2-(2-aminothiazol-4-yl)-2-((2,2,2-trifluoroethoxy)imino)acetamido)-2-hydroxy-3,4-dihydro-2H-benzo[e][1,2]oxaborinine-8-carboxylic Acid], the MIC [1] is reported as 64 to 128 mg/L and the MIC [3] is reported as under 64 mg/L.
For `CC(=O)NCCO/N=C(\C(=O)N[C@H]1Cc2cccc(C(=O)O)c2OB1O)c1csc(N)n1` [Example 119, (R,Z)-3-(2-((2-acetamidoethoxy)imino)-2-(2-aminothiazol-4-yl)acetamido)-2-hydroxy-3,4-dihydro-2H-benzo[e][1,2]oxaborinine-8-carboxylic Acid], the MIC [1] was over 128 mg/L and the MIC [3] was 64 to 128 mg/L.
For `CS(=O)(=O)NCCO/N=C(\C(=O)N[C@H]1Cc2cccc(C(=O)O)c2OB1O)c1csc(N)n1` [Example 120, (R,Z)-3-(2-(2-aminothiazol-4-yl)-2-((2-(methylsulfonamido)ethoxy)imino)acetamido)-2-hydroxy-3,4-dihydro-2H-benzo[e][1,2]oxaborinine-8-carboxylic Acid], the MIC [1] was over 128 mg/L and the MIC [3] was 64 to 128 mg/L.
With `O=C(N[C@H]1Cc2cccc(C(=O)O)c2OB1O)/C(=N\O)c1csc(NCc2ccccn2)n1` [Example 121, (R,Z)-2-hydroxy-3-(2-(hydroxyimino)-2-(2-((pyridin-2-ylmethyl)amino)thiazol-4-yl)acetamido)-3,4-dihydro-2H-benzo[e][1,2]oxaborinine-8-carboxylic Acid] the MIC [1] was under 64 mg/L and the MIC [3] was over 128 mg/L.
For `O=C(N[C@H]1Cc2cccc(C(=O)O)c2OB1O)/C(=N\O)c1csc(NCCc2ccccn2)n1` [Example 122, (R,Z)-2-hydroxy-3-(2-(hydroxyimino)-2-(2-((2-(pyridin-2-yl)ethyl)amino)thiazol-4-yl)acetamido)-3,4-dihydro-2H-benzo[e][1,2]oxaborinine-8-carboxylic Acid], the MIC [1] was under 64 mg/L and the MIC [3] was over 128 mg/L.
Work on `O=C(N[C@H]1Cc2cccc(C(=O)O)c2OB1O)/C(=N\O)c1csc(NCCc2ccncc2)n1` [Example 123, (R,Z)-2-hydroxy-3-(2-(hydroxyimino)-2-(2-((2-(pyridin-4-yl)ethyl)amino)thiazol-4-yl)acetamido)-3,4-dihydro-2H-benzo[e][1,2]oxaborinine-8-carboxylic Acid] yielded an MIC [1] of under 64 mg/L and an MIC [3] of over 128 mg/L.
`O=C(N[C@H]1Cc2cccc(C(=O)O)c2OB1O)/C(=N/O)c1csc(NCCc2ccncc2)n1` [Example 124, (R,E)-2-hydroxy-3-(2-(hydroxyimino)-2-(2-((2-(pyridin-4-yl)ethyl)amino)thiazol-4-yl)acetamido)-3,4-dihydro-2H-benzo[e][1,2]oxaborinine-8-carboxylic Acid] was tested, and the MIC [1] was over 128 mg/L and the MIC [3] was over 128 mg/L.
`Cc1cc(C)n2c1C=C1C=CC(CCC(=O)NCCON=C(C(=O)N[C@H]3Cc4cccc(C(=O)O)c4OB3O)c3csc(N)n3)=[N+]1[B-]2(F)F` [Example 125, (R)-3-(2-(2-aminothiazol-4-yl)-2-((2-(3-(5,5-difluoro-7,9-dimethyl-5H-4λ^4,5λ^4-dipyrrolo[1,2-c:2′,1′-f][1,3,2]diazaborinin-3-yl)propanamido)ethoxy)imino)acetamido)-2-hydroxy-3,4-dihydro-2H-benzo[e][1,2]oxaborinine-8-carboxylic Acid] was tested, and the “S. aureus 29213 MIC” value [1] was “A (A represents an MIC >128 μg/mL)” and the “E. coli 901C MIC” value ([3]; broth microdilution, 16-20 hours at 37° C.) was “A (A represents an MIC >128 μg/mL)”.
`O=C(N[C@H]1Cc2cccc(C(=O)O)c2OB1O)/C(Cn1cncn1)=N\O` [Example 126, (R,Z)-2-hydroxy-3-(2-(hydroxyimino)-3-(1H-1,2,4-triazol-1-yl)propanamido)-3,4-dihydro-2H-benzo[e][1,2]oxaborinine-8-carboxylic Acid] showed an MIC [1] of over 128 mg/L and an MIC [3] of over 128 mg/L.
`O=C(N[C@H]1Cc2cccc(C(=O)O)c2OB1O)/C(Cn1nccn1)=N\O` [Example 127, (R,Z)-2-hydroxy-3-(2-(hydroxyimino)-3-(2H-1,2,3-triazol-2-yl)propanamido)-3,4-dihydro-2H-benzo[e][1,2]oxaborinine-8-carboxylic Acid] gave an MIC [1] of over 128 mg/L and an MIC [3] of over 128 mg/L.
